Experiments:
[1] = test system: cardiomyocytes induced from human iPS cells (253G1 strain); test: Proliferation culture of cardiomyocytes with WNT signal activator CHIR99021, serial subculture (Example 2); assay type: cell-based; settings: for cTnT positive rate (cardiomyocyte purity): CHIR99021 added (1 to 5 μM); for proliferation rate compared with no CHIR99021: CHIR99021 1 to 5 μM; for total cardiomyocyte proliferation: 2.0×10^5 cells/cm^2
Description: A “ratio of multinucleated cardiomyocytes” was determined from a percentage of multinucleated cardiomyocytes in 10,000 cardiomyocytes.
Thereafter, the culture medium was replaced every 3 to 4 days, and culturing was performed for 2 weeks (a first serial subculture).
For the cells obtained after each serial subculture, “cardiomyocyte purity”, “cardiomyocyte proliferation rate”, “ratio of multinucleated cardiomyocytes”, and “average maximum length of multinucleated cardiomyocytes” were determined according to the same procedure as in Example 1.

[2] = test system: cardiomyocyte population (third serial subculture); test: Drug responsiveness test by calcium imaging; assay type: cell-based, human; settings: terfenadine 300 to 900 nM; calcium signal 10 minutes after addition
Description: The obtained cardiomyocyte population was tested for drug responsiveness. A drug responsiveness test was performed by calcium imaging using a fluorescence microscope. Specifically, the drug responsiveness test was performed by acquiring pulsatile calcium fluorescence movies of cardiomyocytes on a fluorescence microscope Olympus IX83.
In the drug responsiveness test, a mixture having the following composition was adjusted to pH 7.4 and used as a culture solution for cardiomyocytes:
ImageJ-based image analysis software was used for data analysis.

Row | SMILES | cTnT positive rate (cardiomyocyte purity) ([1]; after the first serial subculture, before culturing 90 to 96%) [%] | cTnT positive rate (cardiomyocyte purity) ([1]; after the second serial subculture) [%] | concentration of CHIR99021 at which the cardiomyocyte proliferation rate was the highest ([1]; first and second serial subculture, tested 1, 2, 3, 5 μM) [µM] | cardiomyocyte proliferation rate ([1]; first serial subculture (2 weeks), seeding density 2.0×10^5 cells/cm^2, CHIR99021 3 μM) [fold] | proliferation rate compared with no CHIR99021 ([1]; first serial subculture) | total cardiomyocyte proliferation ([1]; in total after the second serial subculture, CHIR99021 3 μM) [fold] | total cardiomyocyte proliferation ([1]; in total after the third to fourth serial subcultures, CHIR99021 3 μM) [fold] | proliferation rate compared with no CHIR99021 ([1]; second serial subculture) | early afterdepolarization (EAD) response [2]
1 | Cc1cnc(-c2cnc(NCCNc3ccc(C#N)cn3)nc2-c2ccc(Cl)cc2Cl)[nH]1 [CHIR99021, 6-[2-[[4-(2,4-dichlorophenyl)-5-(5-methyl-1H-imidazol-2-yl)pyrimidin-2-yl]amino]ethylamino]pyridine-3-carbonitrile] | ≥ 90 | ≥ 90 | 3 | 4.5 | higher proliferation rates | 12.6 | 22.7 | higher proliferation rates | 
2 | CC(C)(C)c1ccc(C(O)CCCN2CCC(C(O)(c3ccccc3)c3ccccc3)CC2)cc1 (stereo not drawn) [terfenadine] |  |  |  |  |  |  |  |  | detected
